Reference: patent US9938261B2, “Heterocyclic compounds and methods of use thereof” (AMBIT BIOSCIENCES CORPORATION, priority 2011, dated 2018)
Where two headings read alike, the source gives them in different places.

Columns and labels:
FLT3 = target: T1, FLT3 (Homo sapiens, UniProt P36888); assay: Competition binding assay, FLT3 Kd
T1 construct: made in house
T1 sequence (P36888 27-993): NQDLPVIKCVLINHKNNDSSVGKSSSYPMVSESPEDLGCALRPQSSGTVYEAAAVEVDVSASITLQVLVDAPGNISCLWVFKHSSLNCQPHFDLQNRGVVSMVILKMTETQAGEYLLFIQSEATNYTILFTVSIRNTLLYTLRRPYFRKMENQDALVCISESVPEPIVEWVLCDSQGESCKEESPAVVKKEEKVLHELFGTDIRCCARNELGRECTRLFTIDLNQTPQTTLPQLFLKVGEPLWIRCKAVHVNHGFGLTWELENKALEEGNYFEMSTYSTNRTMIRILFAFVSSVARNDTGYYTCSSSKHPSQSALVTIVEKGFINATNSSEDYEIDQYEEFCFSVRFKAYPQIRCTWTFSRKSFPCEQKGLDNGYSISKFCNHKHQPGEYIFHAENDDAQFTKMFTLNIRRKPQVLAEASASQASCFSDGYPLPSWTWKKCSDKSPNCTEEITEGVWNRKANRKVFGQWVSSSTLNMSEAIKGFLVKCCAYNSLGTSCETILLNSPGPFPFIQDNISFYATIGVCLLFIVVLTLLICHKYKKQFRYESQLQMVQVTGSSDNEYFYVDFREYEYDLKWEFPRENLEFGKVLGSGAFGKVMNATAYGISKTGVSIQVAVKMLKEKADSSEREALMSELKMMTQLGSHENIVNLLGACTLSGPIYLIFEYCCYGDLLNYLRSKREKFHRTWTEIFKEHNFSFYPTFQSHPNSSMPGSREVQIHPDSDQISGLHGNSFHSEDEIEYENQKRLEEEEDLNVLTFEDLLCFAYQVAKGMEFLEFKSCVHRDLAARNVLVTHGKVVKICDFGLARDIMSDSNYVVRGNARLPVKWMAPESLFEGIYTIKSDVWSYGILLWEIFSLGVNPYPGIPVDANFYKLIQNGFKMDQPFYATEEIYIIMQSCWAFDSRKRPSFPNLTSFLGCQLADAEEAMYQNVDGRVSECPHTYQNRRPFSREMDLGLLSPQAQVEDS
How it was run: (§1)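 Kinases, either T7 phage fusions or HEK-293-expressed and DNA-tagged, competed with test compounds for immobilized biotinylated affinity ligand on streptavidin beads in binding buffer (20% SeaBlock, 0.17×PBS, 0.05% Tween 20, 6 mM DTT). After 1 hour at room temperature, bead-bound kinase was eluted and quantified by qPCR; Kd from eleven-point threefold dilutions.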

KIT = target: T2, KIT (Homo sapiens, UniProt P10721); assay: Competition binding assay, KIT Kd
T2 construct: made in house
T2 sequence (P10721 26-976): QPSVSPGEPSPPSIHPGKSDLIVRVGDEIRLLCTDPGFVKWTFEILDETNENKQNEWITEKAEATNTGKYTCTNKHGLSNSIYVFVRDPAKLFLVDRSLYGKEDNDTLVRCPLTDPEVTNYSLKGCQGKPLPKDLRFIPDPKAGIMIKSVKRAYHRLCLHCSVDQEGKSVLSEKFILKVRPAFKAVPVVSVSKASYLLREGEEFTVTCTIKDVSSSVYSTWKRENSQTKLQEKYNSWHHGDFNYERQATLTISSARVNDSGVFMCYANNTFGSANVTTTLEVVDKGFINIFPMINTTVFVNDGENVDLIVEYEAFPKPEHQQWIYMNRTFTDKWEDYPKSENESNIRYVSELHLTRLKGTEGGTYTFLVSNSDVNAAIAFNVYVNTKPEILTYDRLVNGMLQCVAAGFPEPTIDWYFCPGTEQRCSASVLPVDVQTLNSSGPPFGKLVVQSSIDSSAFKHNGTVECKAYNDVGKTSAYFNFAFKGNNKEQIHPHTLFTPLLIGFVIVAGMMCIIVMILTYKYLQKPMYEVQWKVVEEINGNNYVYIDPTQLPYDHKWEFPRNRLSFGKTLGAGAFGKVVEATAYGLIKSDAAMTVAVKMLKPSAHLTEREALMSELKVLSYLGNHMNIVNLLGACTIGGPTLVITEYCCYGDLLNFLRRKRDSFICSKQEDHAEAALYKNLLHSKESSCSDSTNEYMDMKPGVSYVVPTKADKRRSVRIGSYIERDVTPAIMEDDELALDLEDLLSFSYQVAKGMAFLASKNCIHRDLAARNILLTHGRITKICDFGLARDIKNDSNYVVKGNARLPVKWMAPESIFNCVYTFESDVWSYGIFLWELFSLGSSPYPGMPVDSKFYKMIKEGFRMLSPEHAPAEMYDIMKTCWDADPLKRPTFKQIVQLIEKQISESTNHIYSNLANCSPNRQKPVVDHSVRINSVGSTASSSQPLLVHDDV
How it was run: as §1

PDGFRβ = target: T3, PDGFRβ (Homo sapiens, UniProt P09619); assay: Competition binding assay, PDGFRβ Kd
T3 construct: made in house
T3 sequence (P09619 33-1106): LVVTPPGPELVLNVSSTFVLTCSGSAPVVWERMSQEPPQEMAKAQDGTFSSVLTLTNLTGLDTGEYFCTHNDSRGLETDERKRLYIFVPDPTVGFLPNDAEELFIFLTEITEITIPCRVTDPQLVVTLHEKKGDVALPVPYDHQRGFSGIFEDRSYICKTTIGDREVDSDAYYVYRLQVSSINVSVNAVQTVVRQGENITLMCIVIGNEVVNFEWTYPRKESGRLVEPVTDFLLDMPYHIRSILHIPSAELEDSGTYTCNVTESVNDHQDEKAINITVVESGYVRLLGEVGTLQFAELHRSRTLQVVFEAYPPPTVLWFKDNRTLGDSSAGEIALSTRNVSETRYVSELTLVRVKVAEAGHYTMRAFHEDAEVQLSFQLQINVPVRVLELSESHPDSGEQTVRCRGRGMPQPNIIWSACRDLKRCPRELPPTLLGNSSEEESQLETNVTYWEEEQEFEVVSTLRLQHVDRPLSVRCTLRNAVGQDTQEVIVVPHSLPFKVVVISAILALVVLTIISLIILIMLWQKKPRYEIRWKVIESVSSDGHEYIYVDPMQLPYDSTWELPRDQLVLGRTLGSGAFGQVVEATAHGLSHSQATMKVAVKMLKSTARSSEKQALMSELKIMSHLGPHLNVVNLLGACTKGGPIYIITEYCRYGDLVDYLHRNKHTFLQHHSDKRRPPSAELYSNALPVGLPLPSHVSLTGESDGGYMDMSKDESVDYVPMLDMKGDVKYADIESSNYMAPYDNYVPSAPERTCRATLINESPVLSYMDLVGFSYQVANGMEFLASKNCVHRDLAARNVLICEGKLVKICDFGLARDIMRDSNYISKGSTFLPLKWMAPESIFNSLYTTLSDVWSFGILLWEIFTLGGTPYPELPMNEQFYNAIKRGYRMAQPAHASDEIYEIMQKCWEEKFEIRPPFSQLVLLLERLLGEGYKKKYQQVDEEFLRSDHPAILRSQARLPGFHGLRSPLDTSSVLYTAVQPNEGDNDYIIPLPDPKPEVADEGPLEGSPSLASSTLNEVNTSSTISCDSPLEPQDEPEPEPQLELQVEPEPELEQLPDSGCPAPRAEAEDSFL
How it was run: as §1

M-NFS-60 cells = assay: M-NFS-60 cell proliferation assay (Alamar Blue); assay type: cell-based, mouse; conditions: read-out: CSF1R M-NFS-60 CTB:IC50
How it was run: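 Mouse M-NFS-60 cells growing on 20 ng/mL M-CSF in RPMI/10% FBS were exposed to compounds (9 half-log concentrations, 0.5% DMSO) for 72 h at 37 °C. Viability read by Alamar Blue fluorescence (ex 560/em 590 nm, 3 h). IC50 = 50% proliferation inhibition versus control, mean of duplicates.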

CSF1R [1] = target: T4, CSF1R (Homo sapiens, UniProt P07333); assay: Competition binding assay, CSF1R Kd; parameters: made in house
T4 sequence (P07333 20-972): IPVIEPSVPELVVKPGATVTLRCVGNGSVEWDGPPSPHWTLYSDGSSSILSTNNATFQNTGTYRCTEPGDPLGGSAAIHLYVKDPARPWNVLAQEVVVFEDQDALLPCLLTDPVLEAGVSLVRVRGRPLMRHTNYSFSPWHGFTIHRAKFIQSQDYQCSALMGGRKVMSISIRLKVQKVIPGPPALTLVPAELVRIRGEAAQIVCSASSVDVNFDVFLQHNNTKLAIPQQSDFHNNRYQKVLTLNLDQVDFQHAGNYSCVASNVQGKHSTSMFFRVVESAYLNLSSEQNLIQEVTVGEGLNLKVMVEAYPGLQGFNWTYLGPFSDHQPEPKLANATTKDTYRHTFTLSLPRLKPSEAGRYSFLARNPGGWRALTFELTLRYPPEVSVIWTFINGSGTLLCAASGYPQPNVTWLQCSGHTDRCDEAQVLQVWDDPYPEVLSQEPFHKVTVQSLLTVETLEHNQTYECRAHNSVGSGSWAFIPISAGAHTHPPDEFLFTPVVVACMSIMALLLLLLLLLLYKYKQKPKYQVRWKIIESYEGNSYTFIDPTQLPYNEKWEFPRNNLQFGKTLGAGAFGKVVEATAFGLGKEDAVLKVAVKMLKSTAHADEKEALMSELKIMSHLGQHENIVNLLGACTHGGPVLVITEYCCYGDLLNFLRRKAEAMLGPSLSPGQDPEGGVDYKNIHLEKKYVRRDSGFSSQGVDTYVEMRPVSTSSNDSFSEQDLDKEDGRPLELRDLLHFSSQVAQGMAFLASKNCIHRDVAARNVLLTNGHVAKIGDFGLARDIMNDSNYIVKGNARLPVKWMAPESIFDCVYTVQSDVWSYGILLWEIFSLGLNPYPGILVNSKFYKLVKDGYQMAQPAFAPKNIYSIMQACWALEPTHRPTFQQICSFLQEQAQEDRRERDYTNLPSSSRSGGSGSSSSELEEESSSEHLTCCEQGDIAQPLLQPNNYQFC
How it was run: as §1

CSF1R [2] = target: T4, CSF1R; assay: HEK293 CSF1R phosphorylation MSD assay; assay type: cell-based; parameters: expressed in transfected cells; host or cells: HEK293; conditions: read-out: HEK293 pCSF1R M-CSF MSD:IC50
How it was run: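 HEK293 cells expressing CSF1R-FKBP were pretreated 2 h at 37° C with 9 half-log concentrations of compound (0.5% DMSO final), then stimulated 5 min with 50 ng/mL human M-CSF. Lysates captured on biotin-FK506 plates; phosphotyrosine detected by MSD electrochemiluminescence. IC50 versus DMSO, averaged from duplicate plates.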

[3] = Mus musculus, 72 hours incubation, M-CSF 20 ng/mL
[4] = 2 h compound, human M-CSF 50 ng/mL for 5 min
[5] = Mus musculus, M-NFS-60 cell proliferation
[6] = HEK293 cells, M-CSF stimulated CSF1R phosphorylation, MSD

| Kd (FLT3) [nM] | Kd (KIT) [nM] | Kd (PDGFRβ) [nM] | Kd (CSF1R [1]) [nM] | IC50 (CSF1R [2]; [4]) [nM] | Kd (FLT3; competition binding) [nM] | Kd (KIT; competition binding) [nM] | Kd (PDGFRβ; competition binding) [nM] | Kd (CSF1R [1]; competition binding) [nM] | IC50 (CSF1R [2]; [6]) [nM] | Molecule | IC50 (M-NFS-60 cells; [3]) [nM] | IC50 (M-NFS-60 cells; 72 hours incubation, M-CSF 20 ng/mL) [nM] | IC50 (M-NFS-60 cells; [5]) [nM] |
| --- | --- | --- | --- | --- | --- | --- | --- | --- | --- | --- | --- | --- | --- |
| ≤ 200 | 100 to 500 | 50 to 500 | 5 to 20 | 50 to 200 | – | – | – | – | – | O[C@@H]1CCCC[C@H]1Nc1nc2ccc(Cn3cnc4ccccc43)cc2s1 [Example 6, (1R,2R)-2-((6-((1H-benzo[d]imidazol-1-yl)methyl)benzo[d]thiazol-2-yl)amino)cyclohexanol] | 50 to 400 | – | – |
| 1000 to 5000 | > 2000 | > 2000 | 20 to 50 | 200 to 500 | – | – | – | – | – | COc1cc2ncn(Cc3ccc4nc(N[C@@H]5CCCC5O)sc4c3)c2cc1OC (stereo in doubt) [Example 20, (1R,2R)-2-((6-((5,6-dimethoxy-1H-benzo[d]imidazol-1-yl)methyl)benzo[d]thiazol-2-yl)amino)cyclopentanol] | > 1500 | – | – |
| > 5000 | > 2000 | > 2000 | > 50 | > 500 | – | – | – | – | – | COc1cc2ncn(Cc3ccc4nc(NC5CCN(C(C)=O)CC5)sc4c3)c2cc1OC [Example 24, 1-(4-((6-((5,6-dimethoxy-1H-benzo[d]imidazol-1-yl)methyl)benzo[d]thiazol-2-yl)amino)piperidin-1-yl)ethanone acetic acid] | > 1500 | – | – |
| > 5000 | > 2000 | > 2000 | > 50 | > 500 | – | – | – | – | – | O[C@@H]1CCCC[C@H]1Nc1nc2ccc(Cn3cnc4ncccc43)cc2s1 [Example 5, (1R,2R)-2-((6-((1H-imidazo[4,5-b]pyridin-1-yl)methyl)benzo[d]thiazol-2-yl)amino)cyclohexanol] | > 1500 | – | – |
| ≤ 200 | ≤ 100 | 50 to 500 | ≤ 5 | ≤ 50 | – | – | – | – | – | COc1ccc2ncn(Cc3ccc4nc(N[C@@H]5CCCC[C@H]5O)sc4c3)c2n1 [Example 23, (1R,2R)-2-((6-((5-methoxy-3H-imidazo[4,5-b]pyridin-3-yl)methyl)benzo[d]thiazol-2-yl)amino)cyclohexanol] | 50 to 400 | – | – |
| 200 to 1000 | ≤ 100 | 50 to 500 | 5 to 20 | ≤ 50 | – | – | – | – | – | O[C@@H]1CCCC[C@H]1Nc1nc2ccc(Cn3cnc4cc(Br)cnc43)cc2s1 [Example 29, (1R,2R)-2-((6-((6-bromo-3H-imidazo[4,5-b]pyridin-3-yl)methyl)benzo[d]thiazol-2-yl)amino)cyclohexanol] | 50 to 400 | – | – |
| 200 to 1000 | 100 to 500 | 50 to 500 | 5 to 20 | 200 to 500 | – | – | – | – | – | COc1cc2ncn(Cc3ccc4nc(N[C@H]5CCc6ccccc65)sc4c3)c2cc1OC [Example 11, (S)—N-(2,3-dihydro-1H-inden-1-yl)-6-((5,6-dimethoxy-1H-benzo[d]imidazol-1-yl)methyl)benzo[d]thiazol-2-amine] | 400 to 1500 | – | – |
| > 5000 | > 2000 | 500 to 2000 | 5 to 20 | 200 to 500 | – | – | – | – | – | O[C@@H]1CCCC[C@H]1Nc1nc2ccc(Cn3cnc4ccncc43)cc2s1 [Example 71, (1R,2R)-2-((6-((3H-imidazo[4,5-c]pyridin-3-yl)methyl)benzo[d]thiazol-2-yl)amino)cyclohexanol] | 400 to 1500 | – | – |
| 200 to 1000 | ≤ 100 | ≤ 50 | 5 to 20 | > 500 | – | – | – | – | – | O[C@@H]1CCCC[C@H]1Nc1nc2ccc(Cn3cnc4cc(-c5nn[nH]n5)cnc43)cc2s1 [Example 93, (1R,2R)-2-((6-((6-(2H-tetrazol-5-yl)-3H-imidazo[4,5-b]pyridin-3-yl)methyl)benzo[d]thiazol-2-yl)amino)cyclohexanol] | > 1500 | – | – |

The remaining lines, values behind:

| Molecule | Kd (FLT3) [nM] | Kd (KIT) [nM] | Kd (PDGFRβ) [nM] | Kd (CSF1R [1]) [nM] | IC50 (CSF1R [2]; [4]) [nM] | Kd (FLT3; competition binding) [nM] | Kd (KIT; competition binding) [nM] | Kd (PDGFRβ; competition binding) [nM] | Kd (CSF1R [1]; competition binding) [nM] | IC50 (CSF1R [2]; [6]) [nM] | IC50 (M-NFS-60 cells; [3]) [nM] | IC50 (M-NFS-60 cells; 72 hours incubation, M-CSF 20 ng/mL) [nM] | IC50 (M-NFS-60 cells; [5]) [nM] |
| --- | --- | --- | --- | --- | --- | --- | --- | --- | --- | --- | --- | --- | --- |
| (1R,2R)-1-((6-((4-(1-methyl-1H-pyrazol-4-yl)-1H-imidazol-1-yl)methyl)benzo[d]thiazol-2-yl)amino)-2,3-dihydro-1H-inden-2-ol or (1R,2R)-1-((6-((5-(1-methyl-1H-pyrazol-4-yl)-1H-imidazol-1-yl)methyl)benzo[d]thiazol-2-yl)amino)-2,3-dihydro-1H-inden-2-ol [Example 32] | 200 to 1000 | > 2000 | > 2000 | > 50 | > 500 | – | – | – | – | – | – | > 1500 | – |
| OCCOc1ccn2c(Cc3ccc4nc(N[C@@H]5CCCC[C@H]5O)sc4c3)cnc2c1 [Example 135, (1R,2R)-2-((6-((7-(2-hydroxyethoxy)imidazo[1,2-a]pyridin-3-yl)methyl)benzo[d]thiazol-2-yl)amino)cyclohexanol] | – | – | – | – | – | > 5000 | 500 to 2000 | 500 to 2000 | 5 to 20 | 50 to 200 | – | – | 50 to 400 |
| Nc1nc2cccnc2n1Cc1ccc2nc(N[C@@H]3CCCC[C@H]3O)sc2c1 [Example 26, 3-((2-(((1R,2R)-2-hydroxycyclohexyl)amino)benzo[d]thiazol-6-yl)methyl)-3H-imidazo[4,5-b]pyridin-2-aminium acetic acid] | 200 to 1000 | > 2000 | > 2000 | 5 to 20 | > 500 | – | – | – | – | – | > 1500 | – | – |
| COc1cc2ncn(Cc3ccc4nc(N(C)C5CCCCC5)sc4c3)c2cc1OC [Example 16, N-cyclohexyl-6-((5,6-dimethoxy-1H-benzo[d]imidazol-1-yl)methyl)-N-methylbenzo[d]thiazol-2-amine] | 200 to 1000 | 100 to 500 | 500 to 2000 | 20 to 50 | 200 to 500 | – | – | – | – | – | > 1500 | – | – |
| COc1cc2ncn(Cc3ccc4nc(Nc5ccccc5O)sc4c3)c2cc1OC [Example 31, 2-((6-((5,6-dimethoxy-1H-benzo[d]imidazol-1-yl)methyl)benzo[d]thiazol-2-yl)amino)phenol] | 1000 to 5000 | 100 to 500 | 50 to 500 | ≤ 5 | > 500 | – | – | – | – | – | > 1500 | – | – |
| O[C@@H]1CCCC[C@H]1Nc1nc2ccc(Cn3cnc4cc(C5=CCOCC5)ccc43)cc2s1 [Example 174, (1R,2R)-2-((6-((5-(3,6-dihydro-2H-pyran-4-yl)-1H-benzo[d]imidazol-1-yl)methyl)benzo[d]thiazol-2-yl)amino)cyclohexanol] | – | – | – | – | – | ≤ 200 | ≤ 100 | ≤ 50 | ≤ 5 | ≤ 50 | – | – | ≤ 50 |
| O[C@H]1CCCC[C@H]1Nc1nc2ccc(Cn3cnc4ccccc43)cc2s1 (racemic) [Example 1, 2-((6-((1H-benzo[d]imidazol-1-yl)methyl)benzo[d]thiazol-2-yl)amino)cyclohexanol] | 1000 to 5000 | 100 to 500 | 50 to 500 | 5 to 20 | 50 to 200 | – | – | – | – | – | 50 to 400 | – | – |
| O[C@@H]1CCCC[C@H]1Nc1nc2ccc(Cn3cnc4cc(C5=CCNCC5)ccc43)cc2s1 [Example 225, (1R,2R)-2-((6-((5-(1,2,3,6-tetrahydropyridin-4-yl)-1H-benzo[d]imidazol-1-yl)methyl)benzo[d]thiazol-2-yl)amino)cyclohexanol] | – | – | – | – | – | 200 to 1000 | ≤ 100 | ≤ 50 | ≤ 5 | 50 to 200 | – | – | 400 to 1500 |
